For test [1], the system named is ARPE-19 cells. The experiment in a line: UOS-induced apoptosis in ARPE-19 cells (Hoechst-positive pyknotic cells). As to conditions: for protection against UOS: free fatty acids, ARPE-19 cells; for UOS-induced apoptosis: 200 nM; for UOS-induced apoptotic cell death: concentration-dependent 50-500 nM, highest inhibition at 500 nM, lowest at 50 nM. It is filed as cell-based, human. The procedure: FIGS. 6A and 6B depicts immunostaining of primary human RPE cells using specific markers ZO-1 (Zona occludens-1), RPE65, MITF (Micro-ophtalmia-associated Transcription Factor) and β-catenin, as well as light microscopy depicting primary human RPE cell morphology at different passages in culture. ARPE-19 cells were grown and maintained in T-75 mM flasks in DMEM F-12 medium containing 10% FBS and incubated at 37° C. with a constant supply of 5% CO2. Cells at 75-80% confluence (72 h growth in DMEM/F12+10% FBS) in 6-well plates were serum-starved for 8 h before exposure. […] The serum-starved cells were treated with TNF-α (Sigma-Aldrich, St. Louis, Mo.) (10 ng/ml) and H2O2 (600 μM) to induce oxidative stress and challenged with increasing concentrations (50-500 nM) of VLC-PUFA (C32:6n3 and C34:6n3) simultaneously with oxidative stress for 16 h (apoptosis) and 6 h (Western-blot) before detection of apoptosis and harvesting for protein analysis. In some experiments, DHA at a concentration of 100 nM and 15-LOX-1 inhibitor PD146176 at a concentration of 1 μM was added to treat the RPE cells under stress. Cell extracts were made and protein concentrations adjusted by Bio-Rad (Hercules, Calif.) protein reagent and used for Western blot analysis. To assess cell death, hRPE and ARPE-19 cells were fixed with methanol for 15 mins, washed with 1×PBS then loaded with 2 μM Hoechst dissolved in a Locke's solution (Promega) and incubated for another 15 mins before imaging. Cells were then viewed by using a Zeiss LSM 510 confocal microscope under UV fluorescence. Images were recorded and cell apoptosis was assessed by using an automated unbiased method.

The subject of test [2] is rats with fluid percussion injury (FPI). The experiment in a line: Traumatic brain injury (fluid percussion injury), neurobehavioral score and MRI. The class given is in vivo. As to conditions: moderate FPI; 1 μg/per rat into subdural space 1 h after TBI; days 1-14; versus CSF. The procedure: FIGS. 23A and 23C: delivery via an intravenous injection; FIG. 23B: delivery via subdural injection. SD rats were subjected to a moderate fluid percussion injury (FPI) model and treated (1 μg/per rat) with 32- and 34 carbon elovanoids as the methyl ester (ME) or sodium salt (Na) (ELV-N32-ME, ELV-N34-ME, ELV-32-Na-d2, ELV-N34-Alkyne) or of vehicle (cerebral spinal fluid; CSF). Treatments were delivered into subdural space at 1 h after TBI. Animals received neurobehavioral examination (normal=0, maximal deficit=12) on days 1, 2, 3, 7 or 14. […] ELV-N34-Alkyne (IV, 300 μg/per animal). All animals received neurobehavioral examination (normal=0, maximal deficit=12) on days 1, 2, 3, 7 or 14.
FIG. 34 is a schematic representation of an experimental protocol for to study the effects of traumatic brain injury through one exemplary model. Briefly, moderate TBI was administered via fluid percussion injury (FPI) to the right parieto-occipital area in male Sprague Dawley rats followed by treatment with elovanoids, behavioral testing, and ex vivo MRI histopathology.
Briefly, Sprague-Dawley rats (280-350 g) were subjected to 4.8 mm craniotomy overlying the right parietal cortex (3.8 mm posterior to bregma and 2.5 mm lateral to midline) was performed 24 hours before fluid percussion injury. A plastic adaptor with a plug was positioned over the craniotomy. […]

Each structure is given as a SMILES string.

Take `CC/C=C\C/C=C\C/C=C\C/C=C\C/C=C\C/C=C\CCCCCCCCCCCCCCC(=O)O` [34:6n3, (16Z,19Z,22Z,25Z,28Z,31Z)-tetratriaconta-16,19,22,25,28,31-hexaenoic acid]: the “protection against UOS” value in test [1] is reported as “elicit protection against UOS”. `CC/C=C\C[C@H](O)\C=C/C=C/C=C/[C@H](O)C/C=C\C/C=C\CCCCCCCCCCCCC(=O)[O-].[Na+]` [ELV-N32-Na, sodium (14Z,17Z,20R,21E,23E,25Z,27S,29Z)-20,27-dihydroxydotriaconta-14,17,21,23,25,29-hexaenoate]: in test [1], the UOS-induced apoptosis result was “attenuation of apoptosis” and the “UOS-induced apoptotic cell death” value is recorded as “attenuated”.

For the molecule `CC/C=C\C/C=C\C/C=C\C/C=C\C/C=C\C/C=C\CCCCCCCCCCCCC(=O)O` [32:6n3, (14Z,17Z,20Z,23Z,26Z,29Z)-dotriaconta-14,17,20,23,26,29-hexaenoic acid], in test [1], the “protection against UOS” value is “elicit protection against UOS”. On to `CC/C=C\C[C@H](O)\C=C/C=C/C=C/[C@H](O)C/C=C\C/C=C\CCCCCCCCCCCCCCC(=O)[O-].[Na+]` [ELV-N34-Na, sodium (16Z,19Z,22R,23E,25E,27Z,29S,31Z)-22,29-dihydroxytetratriaconta-16,19,23,25,27,31-hexaenoate], for which the UOS-induced apoptosis entry in test [1] is reported as “attenuation of apoptosis”.

As for `CC/C=C\C[C@H](O)\C=C/C=C/C=C/[C@H](O)C/C=C\C/C=C\CCCCCCCCCCCCCCC(=O)OC` [ELV-N34-Me, methyl (16Z,19Z,22R,23E,25E,27Z,29S,31Z)-22,29-dihydroxytetratriaconta-16,19,23,25,27,31-hexaenoate], the “neurologic score (normal=0, maximal deficit=12)” value in test [2] was “improved neurologic score”. Also, in test [1], the “UOS-induced apoptotic cell death” value is on record as “attenuated”.

Turning to `CC/C=C\C[C@H](O)\C=C/C=C/C=C/[C@H](O)C/C=C\C/C=C\CCCCCCCCCCCCC(=O)OC` [ELV-N32-Me, methyl (14Z,17Z,20R,21E,23E,25Z,27S,29Z)-20,27-dihydroxydotriaconta-14,17,21,23,25,29-hexaenoate], the “neurologic score (normal=0, maximal deficit=12)” value in test [2] is reported as “improved neurologic score”.
